Test results reported in ChEMBL document CHEMBL5465560, “Selectivity Literature for EUbOPEN Chemogenomic Library” (2024).

Key:
[1] = target: T1, MAP/microtubule affinity-regulating kinase 4 (Homo sapiens) (UniProt Q96L34); assay: Selectivity interaction (ActivX KiNativ screen (kinase selectivity in THP-1 cell lysates)) EUB0000639a MARK4; type: subcellular; conditions: lysate, at 1 µM
T1 sequence (whole entry): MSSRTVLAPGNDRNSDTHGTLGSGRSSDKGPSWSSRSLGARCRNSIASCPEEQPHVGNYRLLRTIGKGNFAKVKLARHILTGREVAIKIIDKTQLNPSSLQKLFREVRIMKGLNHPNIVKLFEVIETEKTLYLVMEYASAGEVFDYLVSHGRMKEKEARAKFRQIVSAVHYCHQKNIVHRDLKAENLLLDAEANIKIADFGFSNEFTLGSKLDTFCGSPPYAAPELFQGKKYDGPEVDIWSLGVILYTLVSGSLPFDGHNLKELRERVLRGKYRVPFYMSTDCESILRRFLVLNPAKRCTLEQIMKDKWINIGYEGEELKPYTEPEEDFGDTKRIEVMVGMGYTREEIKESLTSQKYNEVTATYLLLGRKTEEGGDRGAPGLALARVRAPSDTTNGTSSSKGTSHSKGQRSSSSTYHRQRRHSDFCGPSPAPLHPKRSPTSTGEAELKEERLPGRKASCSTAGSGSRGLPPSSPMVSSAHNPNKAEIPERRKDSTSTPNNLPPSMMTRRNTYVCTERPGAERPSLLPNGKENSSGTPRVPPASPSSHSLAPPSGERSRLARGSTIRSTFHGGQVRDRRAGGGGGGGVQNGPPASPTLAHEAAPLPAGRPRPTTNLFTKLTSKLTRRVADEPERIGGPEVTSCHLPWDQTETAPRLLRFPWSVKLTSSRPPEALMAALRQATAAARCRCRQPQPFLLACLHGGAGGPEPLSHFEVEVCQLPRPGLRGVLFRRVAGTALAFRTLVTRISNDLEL

[2] = target: Cyclin-dependent kinase 17 (Homo sapiens) (UniProt Q00537); assay: Selectivity interaction (ActivX KiNativ screen (kinase selectivity in THP-1 cell lysates)) EUB0000639a CDK17; type: subcellular; conditions: lysate, at 0.2 µM
Sequence of Cyclin-dependent kinase 17 (Homo sapiens) (Q00537 whole entry, looked up): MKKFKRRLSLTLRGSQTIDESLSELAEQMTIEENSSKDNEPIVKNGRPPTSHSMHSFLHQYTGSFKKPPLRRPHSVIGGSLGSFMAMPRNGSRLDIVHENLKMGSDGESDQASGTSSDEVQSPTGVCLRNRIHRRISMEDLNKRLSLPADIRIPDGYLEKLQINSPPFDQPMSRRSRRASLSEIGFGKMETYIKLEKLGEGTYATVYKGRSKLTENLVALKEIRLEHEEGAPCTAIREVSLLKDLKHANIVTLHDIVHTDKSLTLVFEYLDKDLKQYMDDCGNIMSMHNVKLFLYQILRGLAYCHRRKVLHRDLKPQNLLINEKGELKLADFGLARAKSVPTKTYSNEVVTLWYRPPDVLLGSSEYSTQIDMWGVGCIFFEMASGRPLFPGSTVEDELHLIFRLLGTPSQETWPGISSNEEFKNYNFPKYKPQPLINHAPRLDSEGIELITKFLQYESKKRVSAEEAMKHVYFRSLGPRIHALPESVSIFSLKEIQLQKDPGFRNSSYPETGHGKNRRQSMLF

[3] = target: T2, Aurora kinase A (Homo sapiens) (UniProt O14965); assay: Selectivity interaction (Ambit KINOMEscan and KiNATiv profiling in Jurkat cells) EUB0000090b STK6; type: cell-based; conditions: at 1 µM
T2 sequence (whole entry): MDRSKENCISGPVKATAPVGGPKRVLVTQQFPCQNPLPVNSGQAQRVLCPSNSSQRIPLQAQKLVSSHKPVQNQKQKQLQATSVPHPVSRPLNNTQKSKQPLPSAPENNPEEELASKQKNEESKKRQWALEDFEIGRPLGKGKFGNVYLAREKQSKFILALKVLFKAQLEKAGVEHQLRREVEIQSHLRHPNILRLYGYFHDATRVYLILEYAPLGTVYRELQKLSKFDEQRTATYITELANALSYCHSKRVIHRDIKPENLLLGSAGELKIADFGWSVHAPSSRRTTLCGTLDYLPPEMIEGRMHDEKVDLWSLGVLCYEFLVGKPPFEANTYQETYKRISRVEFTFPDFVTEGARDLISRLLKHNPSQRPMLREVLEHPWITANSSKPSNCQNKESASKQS

[4] = target: T3, Mitogen-activated protein kinase 15 (Homo sapiens) (UniProt Q8TD08); assay: Selectivity interaction (Ambit KINOMEscan and KiNATiv profiling in Jurkat cells) EUB0000090b MAPK15; type: cell-based; conditions: at 1 µM
T3 sequence (whole entry): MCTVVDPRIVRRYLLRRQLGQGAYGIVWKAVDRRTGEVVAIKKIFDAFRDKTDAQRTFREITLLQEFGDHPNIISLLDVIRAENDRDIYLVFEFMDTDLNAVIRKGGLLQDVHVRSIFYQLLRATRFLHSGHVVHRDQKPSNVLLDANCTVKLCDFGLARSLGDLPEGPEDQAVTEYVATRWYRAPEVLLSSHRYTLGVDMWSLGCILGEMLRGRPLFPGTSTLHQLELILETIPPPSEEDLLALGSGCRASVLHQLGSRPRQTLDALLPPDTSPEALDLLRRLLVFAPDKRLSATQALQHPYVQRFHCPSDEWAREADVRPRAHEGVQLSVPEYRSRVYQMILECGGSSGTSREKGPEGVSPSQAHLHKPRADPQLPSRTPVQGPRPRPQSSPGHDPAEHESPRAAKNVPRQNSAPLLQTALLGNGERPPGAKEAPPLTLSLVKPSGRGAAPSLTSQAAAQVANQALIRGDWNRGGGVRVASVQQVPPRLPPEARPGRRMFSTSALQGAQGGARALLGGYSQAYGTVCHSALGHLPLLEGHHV

[5] = target: MAP kinase-interacting serine/threonine-protein kinase 2 (Homo sapiens, UniProt Q9HBH9); assay: Selectivity interaction (Ambit KINOMEscan and KiNATiv profiling in Jurkat cells) EUB0000090b MKNK2; type: cell-based; conditions: at 1 µM
Sequence of MAP kinase-interacting serine/threonine-protein kinase 2 (Q9HBH9 whole entry, looked up): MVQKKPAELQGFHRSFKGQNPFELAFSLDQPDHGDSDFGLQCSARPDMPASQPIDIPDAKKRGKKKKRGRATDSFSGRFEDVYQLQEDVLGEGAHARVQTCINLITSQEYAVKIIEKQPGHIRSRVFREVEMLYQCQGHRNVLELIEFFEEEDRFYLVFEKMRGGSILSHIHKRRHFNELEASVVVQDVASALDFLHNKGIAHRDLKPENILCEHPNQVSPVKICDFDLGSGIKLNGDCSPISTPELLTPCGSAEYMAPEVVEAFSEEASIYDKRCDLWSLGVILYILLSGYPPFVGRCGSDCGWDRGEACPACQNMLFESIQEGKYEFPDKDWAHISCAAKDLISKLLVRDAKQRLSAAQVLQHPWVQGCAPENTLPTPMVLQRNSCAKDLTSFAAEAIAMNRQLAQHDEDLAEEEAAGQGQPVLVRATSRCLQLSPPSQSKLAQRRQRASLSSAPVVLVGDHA

[6] = target: Protein-tyrosine kinase 6 (Homo sapiens, UniProt Q13882); assay: Selectivity interaction (KinomeScan (DiscoverX)) EUB0001619a PTK6; conditions: at 1 µM
Sequence of Protein-tyrosine kinase 6 (Q13882 whole entry, looked up): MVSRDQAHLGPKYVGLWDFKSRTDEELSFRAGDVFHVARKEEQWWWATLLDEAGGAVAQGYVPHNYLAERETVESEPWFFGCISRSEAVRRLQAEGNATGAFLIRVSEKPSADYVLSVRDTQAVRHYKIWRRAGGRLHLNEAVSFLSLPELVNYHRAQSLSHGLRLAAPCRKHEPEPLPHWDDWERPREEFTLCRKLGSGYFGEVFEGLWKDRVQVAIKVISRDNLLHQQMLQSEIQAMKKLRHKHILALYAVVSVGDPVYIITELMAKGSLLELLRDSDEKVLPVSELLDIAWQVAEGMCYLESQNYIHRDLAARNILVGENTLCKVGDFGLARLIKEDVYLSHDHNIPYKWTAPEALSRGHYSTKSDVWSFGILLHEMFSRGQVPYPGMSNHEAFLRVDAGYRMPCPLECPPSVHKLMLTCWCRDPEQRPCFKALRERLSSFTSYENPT

[7] = target: T4, Non-receptor tyrosine-protein kinase TNK1 (Homo sapiens) (UniProt Q13470); assay: Selectivity interaction (Kinase panel (Z-LYTE Assay)) EUB0001632a TNK1; conditions: at 10 µM
T4 sequence (whole entry): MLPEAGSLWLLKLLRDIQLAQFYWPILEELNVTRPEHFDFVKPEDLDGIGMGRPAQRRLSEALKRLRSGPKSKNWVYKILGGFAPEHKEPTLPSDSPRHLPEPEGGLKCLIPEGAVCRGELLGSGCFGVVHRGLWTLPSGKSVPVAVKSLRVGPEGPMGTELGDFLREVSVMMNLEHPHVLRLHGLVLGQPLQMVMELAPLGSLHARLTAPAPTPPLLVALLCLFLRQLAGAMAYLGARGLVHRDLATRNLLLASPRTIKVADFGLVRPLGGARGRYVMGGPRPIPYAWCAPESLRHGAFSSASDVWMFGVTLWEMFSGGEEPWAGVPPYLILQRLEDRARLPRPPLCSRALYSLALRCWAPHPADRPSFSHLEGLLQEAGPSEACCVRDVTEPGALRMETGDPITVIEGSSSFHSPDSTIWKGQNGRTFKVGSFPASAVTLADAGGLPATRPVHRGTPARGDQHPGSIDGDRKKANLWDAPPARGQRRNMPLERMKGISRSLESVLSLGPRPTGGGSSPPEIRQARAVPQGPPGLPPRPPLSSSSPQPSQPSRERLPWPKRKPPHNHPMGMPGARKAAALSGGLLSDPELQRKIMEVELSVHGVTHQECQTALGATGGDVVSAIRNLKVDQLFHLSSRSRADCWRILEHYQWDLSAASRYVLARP

SMILES: CC[C@@H]1[C@H](F)C(=O)N[C@@H]1COc1nccc2cc(C(N)=O)c(OC)cc12 [ZIMLOVISERTIB]
- % of inhibition [1]: 17.1%
- % of inhibition [2]: 0.4%

SMILES: CN(C)C/C=C/C(=O)Nc1ccc(C(=O)N2CCCC(Nc3ncc(Cl)c(-c4c[nH]c5ccccc45)n3)C2)cc1 (configuration not stated)
- % of control [3]: 96%
- % of control [4]: 14%
- % of control [5]: 88%

SMILES: N#Cc1cccc(-c2c[nH]c3ncnc(N4CCOCC4)c23)c1
- % of control [6]: 72%

SMILES: Cn1cc(-n2cnc3c(NCc4nc5cc(Cl)c(Cl)cc5[nH]4)nc(N4CCOCC4)nc32)cn1
- % of control [7]: 4.62%
